Type in all cases: in vivo
In experiment [1] the test system is Yellow Fever Mosquito (Aedes aegypti, AEDSAE). Nature of the experiment: Bioassay on Yellow Fever Mosquito (YFM), 96-well plate larval assay. To be noted: Species YFM (Yellow Fever Mosquito). The procedure, abridged:
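Aedes aegypti larvae (about 1 day old) in liver-powder water were added to plates dispensed from DMSO master plates (4000 ppm stock) diluted with 90:10 water/acetone; six replicate plates per master. Lidded plates were held at room temperature for 3 days, then each well was scored for mortality.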

Experiment [2] deals with Cabbage Looper (Trichoplusia ni, TRIPNI). Nature of the experiment: Bioassay on Cabbage Looper (CL), 128-well diet tray assay. To be noted: Trichoplusia ni; Species CL (Cabbage Looper); read-out: CL (Biological Results, rating). The procedure, abridged: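 Diet-incorporation-free surface assay: 50 μg/cm^2 compound in acetone-water (90:10), dried on diet; 1–5 2nd-instar larvae/well; 8 wells; vented cover; 25° C., 14:10 L:D, 5–7 d; % mortality averaged over wells.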

The test system of experiment [3] is Beet Armyworm (Spodoptera exigua, LAPHEG). Nature of the experiment: Bioassay on Beet Armyworm (BAW), 128-well diet tray assay. To be noted: Species BAW (Beet Armyworm), read-out: BAW (Biological Results, rating). The procedure, abridged: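 Second instar larvae were exposed to diet treated at 50 μg/cm^2 for five to seven days at 25° C.; mortality was averaged over eight wells.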

In the case of `O=C(Nc1cncnc1)c1cc(NC(=O)[C@H]2[C@H](c3cc(Cl)cc(Cl)c3)C2(Cl)Cl)ccc1Cl` (relative stereo) [F295, trans-2-Chloro-5-(2,2-dichloro-3-(3,5-dichlorophenyl)cyclopropane-1-carboxamido)-N-(pyrimidin-5-yl)benzamide], in experiment [1], the “YFM (Biological Results, rating)” value is “A (80-100)”. In addition, the pest or weed control at 50 µg/cm2 in experiment [2] and in experiment [3] was 50 to 100% each time.

For `O=C(Nc1ccncn1)c1cc(NC(=O)[C@H]2[C@H](c3cc(Cl)cc(Cl)c3)C2(Cl)Cl)ccc1Cl` (relative stereo) [F296, trans-2-Chloro-5-(2,2-dichloro-3-(3,5-dichlorophenyl)cyclopropane-1-carboxamido)-N-(pyrimidin-4-yl)benzamide], the “YFM (Biological Results, rating)” value in experiment [1] is on record as “A (80-100)”. In addition, the pest or weed control at 50 µg/cm2 in experiment [2] and in experiment [3] was 50 to 100% in each case.

With `Cc1cc(NC(=O)c2cc(NC(=O)[C@H]3[C@H](c4cc(Cl)cc(Cl)c4)C3(Cl)Cl)ccc2Cl)ncc1F` (relative stereo) [F297, trans-2-Chloro-5-(2,2-dichloro-3-(3,5-dichlorophenyl)cyclopropane-1-carboxamido)-N-(5-fluoro-4-methylpyridin-2-yl)benzamide], the “YFM (Biological Results, rating)” value in experiment [1] is given as “A (80-100)”. Besides, the pest or weed control at 50 µg/cm2 in experiment [2] and in experiment [3] was 50 to 100% throughout.

Regarding `N#Cc1c(F)cccc1NC(=O)c1cc(NC(=O)[C@H]2[C@H](c3cc(Cl)cc(Cl)c3)C2(Cl)Cl)ccc1Cl` (relative stereo) [F298, 2-Chloro-N-(2-cyano-3-fluorophenyl)-5-(trans-2,2-dichloro-3-(3,5-dichlorophenyl)cyclopropane-1-carboxamido)benzamide], in experiment [1], the “YFM (Biological Results, rating)” value was “A (80-100)”. Further, the pest or weed control at 50 µg/cm2 in experiment [2] and in experiment [3] was 50 to 100% in each case.

For `N#Cc1cccc(F)c1NC(=O)c1cc(NC(=O)[C@H]2[C@H](c3cc(Cl)cc(Cl)c3)C2(Cl)Cl)ccc1Cl` (relative stereo) [F299, 2-Chloro-N-(2-cyano-6-fluorophenyl)-5-(trans-2,2-dichloro-3-(3,5-dichlorophenyl)cyclopropane-1-carboxamido)benzamide], the “YFM (Biological Results, rating)” value in experiment [1] was “A (80-100)”. For the same molecule, the pest or weed control at 50 µg/cm2 in experiment [2] and in experiment [3] was 50 to 100% throughout.

On to `Cc1cc(F)c(NC(=O)c2cc(NC(=O)[C@H]3[C@H](c4cc(Cl)cc(Cl)c4)C3(Cl)Cl)ccc2Cl)c(C#N)c1` (relative stereo) [F300, 2-Chloro-N-(2-cyano-6-fluoro-4-methylphenyl)-5-(trans-2,2-dichloro-3-(3,5-dichlorophenyl)cyclopropane-1-carboxamido)benzamide], for which the “YFM (Biological Results, rating)” value in experiment [1] is “A (80-100)”. In addition, the pest or weed control at 50 µg/cm2 in experiment [2] and in experiment [3] was 50 to 100% in each case.

Regarding `N#Cc1cc(Cl)ccc1NC(=O)c1cc(NC(=O)[C@H]2[C@H](c3cc(Cl)cc(Cl)c3)C2(Cl)Cl)ccc1Cl` (relative stereo) [F301, 2-Chloro-N-(4-chloro-2-cyanophenyl)-5-(trans-2,2-dichloro-3-(3,5-dichlorophenyl)cyclopropane-1-carboxamido)benzamide], in experiment [1], the “YFM (Biological Results, rating)” value is reported as “A (80-100)”. Besides, the pest or weed control at 50 µg/cm2 in experiment [2] and in experiment [3] was 50 to 100% in each case.

Consider `N#Cc1c(Cl)cccc1NC(=O)c1cc(NC(=O)[C@H]2[C@H](c3cc(Cl)cc(Cl)c3)C2(Cl)Cl)ccc1Cl` (relative stereo) [F302, 2-Chloro-N-(3-chloro-2-cyanophenyl)-5-(trans-2,2-dichloro-3-(3,5-dichlorophenyl)cyclopropane-1-carboxamido)benzamide], for which the “YFM (Biological Results, rating)” value in experiment [1] was “A (80-100)”. For the same molecule, the pest or weed control at 50 µg/cm2 in experiment [2] and in experiment [3] was 50 to 100% each time.

As for `N#Cc1ccc(Br)cc1NC(=O)c1cc(NC(=O)[C@H]2[C@H](c3cc(Cl)cc(Cl)c3)C2(Cl)Cl)ccc1Cl` (relative stereo) [F303, N-(5-Bromo-2-cyanophenyl)-2-chloro-5-(trans-2,2-dichloro-3-(3,5-dichlorophenyl)cyclopropane-1-carboxamido)benzamide], in experiment [1], the “YFM (Biological Results, rating)” value is recorded as “A (80-100)”. For the same molecule, the pest or weed control at 50 µg/cm2 in experiment [2] and in experiment [3] was 50 to 100% each time.

Consider `Cc1cccc(NC(=O)c2cc(NC(=O)[C@H]3[C@H](c4cc(Cl)cc(Cl)c4)C3(Cl)Cl)ccc2Cl)c1C#N` (relative stereo) [F304, 2-Chloro-N-(2-cyano-3-methylphenyl)-5-(trans-2,2-dichloro-3-(3,5-dichlorophenyl)cyclopropane-1-carboxamido)benzamide], for which, in experiment [1], the “YFM (Biological Results, rating)” value is given as “A (80-100)”. Further, the pest or weed control at 50 µg/cm2 in experiment [2] and in experiment [3] was 50 to 100% in each case.

As to `Nc1ccc(NC(=O)c2cc(NC(=O)[C@H]3[C@H](c4cc(Cl)cc(Cl)c4)C3(Cl)Cl)ccc2Cl)nc1` (relative stereo) [F305, N-(5-Aminopyridin-2-yl)-2-chloro-5-(trans-2,2-dichloro-3-(3,5-dichlorophenyl)cyclopropane-1-carboxamido)benzamide], in experiment [1], the “YFM (Biological Results, rating)” value is on record as “A (80-100)”. For the same molecule, the pest or weed control at 50 µg/cm2 in experiment [2] and in experiment [3] was 50 to 100% throughout.

On to `O=C(Nc1ccc(F)cc1F)c1cc(NC(=O)[C@H]2[C@H](c3ccc(Br)c(Cl)c3)C2(Cl)Cl)ccc1Cl` (relative stereo) [F306, 5-(trans-3-(4-Bromo-3-chlorophenyl)-2,2-dichlorocyclopropane-1-carboxamido)-2-chloro-N-(2,4-difluorophenyl)benzamide], for which the “YFM (Biological Results, rating)” value in experiment [1] was “A (80-100)”. Further, the pest or weed control at 50 µg/cm2 in experiment [2] and in experiment [3] was 50 to 100% throughout.

For `CN(C(=O)c1cc(NC(=O)[C@H]2[C@H](c3ccc(Br)c(Cl)c3)C2(Cl)Cl)ccc1Cl)c1ccc(F)cc1` (relative stereo) [F307, 5-(trans-3-(4-Bromo-3-chlorophenyl)-2,2-dichlorocyclopropane-1-carboxamido)-2-chloro-N-(4-fluorophenyl)-N-methylbenzamide], in experiment [1], the “YFM (Biological Results, rating)” value was “A (80-100)”. The pest or weed control at 50 µg/cm2 in experiment [2] and in experiment [3] was 50 to 100% each time.

For the molecule `N#Cc1cc(F)ccc1NC(=O)c1cc(NC(=O)[C@H]2[C@H](c3cc(C(F)(F)F)cc(C(F)(F)F)c3)C2(Cl)Cl)ccc1Cl` (relative stereo) [F308, trans-5-(3-(3,5-bis(Trifluoromethyl)phenyl)-2,2-dichlorocyclopropane-1-carboxamido)-2-chloro-N-(2-cyano-4-fluorophenyl)benzamide], the “YFM (Biological Results, rating)” value in experiment [1] was “A (80-100)”. The pest or weed control at 50 µg/cm2 in experiment [2] and in experiment [3] was 50 to 100% in each case.

`O=C(Nc1ncc(I)cc1F)c1cc(NC(=O)[C@H]2[C@H](c3cc(Cl)cc(Cl)c3)C2(Cl)Cl)ccc1Cl` (relative stereo) [F312, 2-Chloro-5-(trans)-(2,2-dichloro-3-(3,5-dichlorophenyl)cyclopropane-1-carboxamido)-N-(3-fluoro-5-iodopyridin-2-yl)benzamide]: the “YFM (Biological Results, rating)” value in experiment [1] is given as “A (80-100)”. Further, the pest or weed control at 50 µg/cm2 in experiment [2] and in experiment [3] was 50 to 100% each time.

Take `C=Cc1ccc([C@H]2[C@H](C(=O)Nc3ccc(Cl)c(C(=O)Nc4ccc(F)cc4F)c3)C2(Cl)Cl)cc1Cl` (relative stereo) [F319, 2-Chloro-5-(trans-2,2-dichloro-3-(3-chloro-4-vinylphenyl)cyclopropane-1-carboxamido)-N-(2,4-difluorophenyl)benzamide]: in experiment [1], the “YFM (Biological Results, rating)” value was “A (80-100)”. In addition, the pest or weed control at 50 µg/cm2 in experiment [2] and in experiment [3] was 50 to 100% throughout.

Turning to `N#Cc1cc(F)ccc1NC(=O)c1cc(NC(=O)[C@H]2[C@H](c3ccc(Br)c(Cl)c3)C2(Cl)Cl)ccc1Cl` (relative stereo) [F320, 5-(trans-3-(4-Bromo-3-chlorophenyl)-2,2-dichlorocyclopropane-1-carboxamido)-2-chloro-N-(2-cyano-4-fluorophenyl)benzamide], the “YFM (Biological Results, rating)” value in experiment [1] was “A (80-100)”. In addition, the pest or weed control at 50 µg/cm2 in experiment [2] and in experiment [3] was 50 to 100% each time.

As to `Cc1cc(NC(=O)OC(C)(C)C)ccc1NC(=O)c1cc(NC(=O)[C@H]2[C@H](c3ccc(Br)c(Cl)c3)C2(Cl)Cl)ccc1Cl` (relative stereo) [F322, tert-Butyl (4-(5-(trans-3-(4-bromo-3-chlorophenyl)-2,2-dichlorocyclopropane-1-carboxamido)-2-chlorobenzamido)-3-methylphenyl)carbamate], the “YFM (Biological Results, rating)” value in experiment [1] was “A (80-100)”. In addition, the pest or weed control at 50 µg/cm2 in experiment [2] and in experiment [3] was 50 to 100% in each case.

As for `CNc1ccc(NC(=O)c2cc(NC(=O)[C@H]3[C@H](c4ccc(Br)c(Cl)c4)C3(Cl)Cl)ccc2Cl)c(C)c1` (relative stereo) [F323, 5-(trans-3-(4-bromo-3-chlorophenyl)-2,2-dichlorocyclopropane-1-carboxamido)-2-chloro-N-(2-methyl-4-(methylamino)phenyl)benzamide], in experiment [1], the “YFM (Biological Results, rating)” value is “A (80-100)”. In addition, the pest or weed control at 50 µg/cm2 in experiment [2] and in experiment [3] was 50 to 100% each time.

(Values after US10219516B2, “Molecules having pesticidal utility, and intermediates, compositions, and processes, related thereto” (priority 2015, dated 2019).)
